Measured values reported in US8778966B2, “Quinolinone derivatives as PARP and tank inhibitors” (Janssen Pharmaceutica, NV, priority 2007, dated 2014).

Test system: HCT116 cells
Test: Antiproliferative activity, Alamar Blue assay, HCT116 cells
Assay type: cell-based, human
Set-up: key to HCT116 antiproliferative activity pIC50: pIC50 = -log IC50 (IC50: conc. reducing growth to 50% of control)
Conditions: HCT116 cells, Alamar Blue
Procedure, shortened: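 HCT116 cells seeded, adhered 24 h, then exposed to compound for 4 days; Alamar Blue (resazurin) added for 4 h at 37 °C, fluorescence read at 540/590 nm. Viability as % of untreated control, triplicate wells; IC50 by probit analysis, reported as pIC50.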

With `CCc1cc2ccc(C(C)(C#N)Cc3cccc(C#N)n3)cc2[nH]c1=O` (single isomer, unassigned) [Compound 207] the “HCT116 antiproliferative activity pIC50” value was 7.0.

Same assay, conditions: Homo sapiens, HCT-116, HCT116 cells, Alamar Blue; read-out: HCT116 antiproliferative activity pIC50 (converted)

Compared with `CCc1cc2ccc([C@@](C)(C#N)Cc3cccc(N(C)C)c3)cc2[nH]c1=O` (single isomer, unassigned) [Compound 258], `CCc1cc2ccc([C@](C)(C#N)Cc3cccc(N(C)C)c3)cc2[nH]c1=O` (single isomer, unassigned) [Compound 259] is 40-fold higher in IC50: 251 nM for the first, 10000 nM for the second.

Going from `CCC[C@@](C#N)(Cc1ccccc1)c1ccc2cc(CC)c(=O)[nH]c2c1` (single isomer, unassigned) [Compound 263] to `CCC[C@](C#N)(Cc1ccccc1)c1ccc2cc(CC)c(=O)[nH]c2c1` (single isomer, unassigned) [Compound 264], the IC50 rises from 3160 nM to 10000 nM (3.2-fold).

Compared with `CCc1cc2ccc([C@@](C)(C#N)Cc3cccc(C#N)c3)cc2[nH]c1=O` (single isomer, unassigned) [Compound 268], `CCc1cc2ccc([C@](C)(C#N)Cc3cccc(C#N)c3)cc2[nH]c1=O` (single isomer, unassigned) [Compound 269] is 50-fold lower in IC50: 10000 nM for the first, 200 nM for the second.

Compared with `CCc1cc2ccc([C@](C)(C#N)C[C@@H]3Cc4cc(C)ccc4O3)cc2[nH]c1=O` (single isomer, unassigned) [Compound 400], `CCc1cc2ccc(C(C)(C#N)CC3CCc4ccccc4O3)cc2[nH]c1=O` (stereo not shown) [Compound 399] is 16-fold lower in IC50: 10000 nM for the first, 631 nM for the second.

Compared with `C#Cc1cccc(C[C@](C)(C#N)c2ccc3cc(CC)c(=O)[nH]c3c2)c1` [Compound 2], `C#Cc1cccc(C[C@@](C)(C#N)c2ccc3cc(CC)c(=O)[nH]c3c2)c1` [Compound 3] is 250-fold lower in IC50: 10000 nM for the first, 39.8 nM for the second.

Compared with `CCc1cc2ccc(C(C)(C#N)Cc3cccc(OC[C@@H](O)CO)c3)cc2[nH]c1=O` (stereo partly shown) [Compound 56], `CCc1cc2ccc(C(C)(C#N)Cc3cccc(OCCO)c3)cc2[nH]c1=O` (stereo not shown) [Compound 262] is 13-fold lower in IC50: 3160 nM for the first, 251 nM for the second.

Compared with `CCc1cc2ccc(C(C)(C#N)Cc3cccc(CCC#N)c3)cc2[nH]c1=O` (stereo not shown) [Compound 169], `CCc1cc2ccc(C(C)(C#N)Cc3cccc(CN)c3)cc2[nH]c1=O` (stereo not shown) [Compound 290] is 32-fold lower in IC50: 5010 nM for the first, 158 nM for the second.

First: CCc1cc2ccc(C(C)(C#N)Cc3cccc(CNS(C)(=O)=O)c3)cc2[nH]c1=O (stereo not shown) [Compound 170]
Second: CCc1cc2ccc(C(C)(C#N)Cc3cccc(/C=C/S(C)(=O)=O)c3)cc2[nH]c1=O (stereo not shown) [Compound 292]
The IC50 of the first is 10-fold higher: 5010 nM for the first, 501 nM for the second.

Going from `C=Cc1cccc(CC(C)(C#N)c2ccc3cc(CC)c(=O)[nH]c3c2)c1` (stereo not shown) [Compound 172] to `CCc1cc2ccc(C(C)(C#N)Cc3cccc(C#CCO)c3)cc2[nH]c1=O` (stereo not shown) [Compound 183], the IC50 falls from 501 nM to 63.1 nM (7.9-fold).

First: CCc1cc2cc(F)c(C(C)(C#N)Cc3cccc(C#N)c3)cc2[nH]c1=O (stereo not shown) [Compound 175]
Second: CCc1cc2cc(OCCOC)c(C(C)(C#N)Cc3cccc(C#N)c3)cc2[nH]c1=O (stereo not shown) [Compound 182]
The IC50 of the first is 10-fold lower: 631 nM for the first, 6310 nM for the second.

Going from `CCc1c(C)c2ccc(C(C)(C#N)Cc3cccc(C#N)c3)cc2[nH]c1=O` (stereo not shown) [Compound 181] to `CCc1c(Cl)c2ccc(C(C)(C#N)Cc3cccc(C#N)c3)cc2[nH]c1=O` (stereo not shown) [Compound 293], the IC50 falls from 2510 nM to 794 nM (3.2-fold).

Going from `CCc1cc2ccc(C(F)(C#N)Cc3ccccc3)cc2[nH]c1=O` (stereo not shown) [Compound 187] to `CCc1cc2ccc(C(C)(C#N)CN(C)Cc3ccccc3)cc2[nH]c1=O` (stereo not shown) [Compound 189], the IC50 falls from 3160 nM to 1260 nM (2.5-fold).

Compared with `CCc1cc2ccc(C(C)(C#N)C(C)c3ccccc3)cc2[nH]c1=O` (stereo not shown) [Compound 198], `CCc1cc2ccc([C@](C)(C#N)[C@@H](C)c3ccccc3)cc2[nH]c1=O` [Compound 199] is 5-fold higher in IC50: 2000 nM for the first, 10000 nM for the second.

`CCc1cc2ccc([C@](C)(C#N)[C@H](C)c3ccccc3)cc2[nH]c1=O` [Compound 200] and `CCc1cc2ccc(C(C)(C#N)Cc3nc4ccccc4n3C)cc2[nH]c1=O` (stereo not shown) [Compound 338] are the same in IC50: 1580 nM for the first, 1580 nM for the second.

Going from `CCc1cc2ccc(C(C)(C#N)Cc3cccc(C#C[Si](C)(C)C)n3)cc2[nH]c1=O` (stereo not shown) [Compound 210] to `C#Cc1cccc(CC(C)(C#N)c2ccc3cc(CC)c(=O)[nH]c3c2)n1` (stereo not shown) [Compound 211], the IC50 falls from 501 nM to 316 nM (1.6-fold).

`CCc1cc2ccc(C(C)(C#N)Cc3cccc(N(C)C)n3)cc2[nH]c1=O` (stereo not shown) [Compound 213] and `CCc1cc2ccc(C(C)(C#N)Cc3cccc(I)n3)cc2[nH]c1=O` (stereo not shown) [Compound 214] are the same in IC50: 501 nM for the first, 501 nM for the second.

Going from `CCOC(=O)c1cccc(CC(C)(C#N)c2ccc3cc(CC)c(=O)[nH]c3c2)n1` (stereo not shown) [Compound 215] to `CCc1cc2ccc(C(C)(C#N)Cc3cccc(C)n3)cc2[nH]c1=O` (stereo not shown) [Compound 343], the IC50 falls from 1580 nM to 794 nM (2-fold).

First: CCc1cc2ccc(C(C)(C#N)Cc3cccc(COC)n3)cc2[nH]c1=O (stereo not shown) [Compound 216]
Second: CCc1cc2ccc(C(C)(C#N)Cc3cccc(CN)n3)cc2[nH]c1=O (stereo not shown) [Compound 221]
The IC50 of the first is 1.6-fold higher: 2000 nM for the first, 1260 nM for the second.

Compared with `CCc1cc2ccc(C(C)(C#N)Cc3cccc(OCCOC)n3)cc2[nH]c1=O` (stereo not shown) [Compound 219], `CCc1cc2ccc(C(C)(C#N)Cc3cccc(OC)n3)cc2[nH]c1=O` (stereo not shown) [Compound 353] is 25-fold lower in IC50: 5010 nM for the first, 200 nM for the second.

Compared with `CCc1cc2ccc(C(C)(C#N)CCOc3cccc(C(F)(F)F)c3)cc2[nH]c1=O` (stereo not shown) [Compound 274], `CCc1cc2ccc(C(C)(C#N)Cc3cccc(Cl)n3)cc2[nH]c1=O` (stereo not shown) [Compound 310] is 13-fold lower in IC50: 6310 nM for the first, 501 nM for the second.

Going from `CCc1cc2cc(OC)c(C(C)(C#N)Cc3ccccc3)cc2[nH]c1=O` (stereo not shown) [Compound 294] to `CCc1cc2ccc(C(C)(C#N)Cc3cccc(C#CCOC)c3)cc2[nH]c1=O` (stereo not shown) [Compound 297], the IC50 falls from 6310 nM to 398 nM (16-fold).

Compared with `CCc1cc2ccc(C(C)(C#N)Cc3cccc(C#CCN(C)C)c3)cc2[nH]c1=O` (stereo not shown) [Compound 298], `CCc1cc2ccc(C(C)(C#N)CNCc3cccc(C#N)c3)cc2[nH]c1=O` (stereo not shown) [Compound 301] is 1.6-fold higher in IC50: 2510 nM for the first, 3980 nM for the second.

First: CCc1cc2ccc(C(C)(C#N)Cc3cnc(Cl)nc3Cl)cc2[nH]c1=O (stereo not shown) [Compound 306]
Second: CCc1cc2ccc(C(C)(C#N)Cc3cnc(OC)nc3Cl)cc2[nH]c1=O (stereo not shown) [Compound 356]
The IC50 of the first is 3.2-fold higher: 2000 nM for the first, 631 nM for the second.

Compared with `COc1cc(OC)nc(CC(C)(C#N)c2ccc3cc(C)c(=O)[nH]c3c2)n1` (stereo not shown) [Compound 308], `CCc1cc2ccc(C(C)(C#N)Cc3cc(OC)nc(OC)n3)cc2[nH]c1=O` (stereo not shown) [Compound 358] is 10-fold higher in IC50: 316 nM for the first, 3160 nM for the second.

First: CCOc1cc(OCC)nc(CC(C)(C#N)c2ccc3cc(CC)c(=O)[nH]c3c2)n1 (stereo not shown) [Compound 309]
Second: CCc1cc2ccc(C(C)(C#N)Cc3nc(Cl)cc(OCCOC)n3)cc2[nH]c1=O (stereo not shown) [Compound 370]
The IC50 of the first is 1.6-fold lower: 1000 nM for the first, 1580 nM for the second.

First: CCc1cc2ccc(C(C)(C#N)Cc3ncc(C)c(OC)c3C)cc2[nH]c1=O (stereo not shown) [Compound 311]
Second: CCc1cc2ccc(C(C)(C#N)Cc3nc(C)cc(C)n3)cc2[nH]c1=O (stereo not shown) [Compound 368]
The IC50 of the first is 2-fold higher: 3160 nM for the first, 1580 nM for the second.

Going from `CCc1cc2ccc(C(C)(C#N)Cc3ccc(C)nc3)cc2[nH]c1=O` (stereo not shown) [Compound 327] to `CCc1cc2ccc(C(C)(C#N)Cc3ccc(OC)nc3)cc2[nH]c1=O` (stereo not shown) [Compound 352], the IC50 falls from 2000 nM to 1260 nM (1.6-fold).

`CCc1cc2ccc(C(C)(C#N)Cc3cccc(C#N)n3)cc2[nH]c1=O` (stereo not shown) [Compound 329] and `CCc1cc2ccc(C(C)(C#N)Cc3cccc(Br)n3)cc2[nH]c1=O` (stereo not shown) [Compound 344] are the same in IC50: 316 nM for the first, 316 nM for the second.

`CCCn1ccnc1CC(C)(C#N)c1ccc2cc(CC)c(=O)[nH]c2c1` (stereo not shown) [Compound 335] and `CCc1cc2ccc(C(C)(C#N)Cc3nccn3CC)cc2[nH]c1=O` (stereo not shown) [Compound 337] are the same in IC50: 5010 nM for the first, 5010 nM for the second.

`CCc1cc2ccc(C(C)(C#N)Cc3ccc4ccccc4n3)cc2[nH]c1=O` (stereo not shown) [Compound 336] and `CCc1cc2ccc(C(C)(C#N)Cc3cccc(CO)n3)cc2[nH]c1=O` (stereo not shown) [Compound 345] are within 1.5-fold of each other in IC50: 2510 nM for the first, 2000 nM for the second.

First: CCc1cc2ccc(C(C)(C#N)Cc3cnc(OC)nc3OC)cc2[nH]c1=O (stereo not shown) [Compound 357]
Second: CCc1cc2ccc(C(C)(C#N)Cc3cc(OC)nc(C)n3)cc2[nH]c1=O (stereo not shown) [Compound 366]
The IC50 of the first is 1.6-fold lower: 398 nM for the first, 631 nM for the second.

Going from `CCc1cc2ccc(C(C)(C#N)Cc3nc(Cl)cc(N(C)C)n3)cc2[nH]c1=O` (stereo not shown) [Compound 359] to `CCc1cc2ccc(C(C)(C#N)Cc3cc(N(C)C)nc(Cl)n3)cc2[nH]c1=O` (stereo not shown) [Compound 364], the IC50 rises from 200 nM to 1260 nM (6.3-fold).

First: CCc1cc2ccc(C(C)(C#N)Cc3nccc(OC)n3)cc2[nH]c1=O (stereo not shown) [Compound 360]
Second: CCc1cc2ccc(C(C)(C#N)Cc3nccc(OCCOC)n3)cc2[nH]c1=O (stereo not shown) [Compound 369]
The IC50 of the first is 3.2-fold lower: 1260 nM for the first, 3980 nM for the second.

First: CCc1cc2ccc(C(C)(C#N)Cc3cc(OCCOC)nc(C)n3)cc2[nH]c1=O (stereo not shown) [Compound 363]
Second: CCc1cc2ccc(C(C)(C#N)Cc3cc(OCCOC)nc(Cl)n3)cc2[nH]c1=O (stereo not shown) [Compound 367]
The IC50 of the first is 2-fold higher: 5010 nM for the first, 2510 nM for the second.

Going from `CCc1cc2ccc(C(C)(C#N)Cc3cc(Cl)nc(Cl)c3)cc2[nH]c1=O` (stereo not shown) [Compound 372] to `CCc1cc2ccc(C(C)(C#N)Cc3cc(OC)ccn3)cc2[nH]c1=O` (stereo not shown) [Compound 373], the IC50 rises from 398 nM to 7940 nM (20-fold).

Same assay, conditions: Homo sapiens, HCT-116, HCT116 cells; read-out: HCT116 antiproliferative activity pIC50 (converted)

Going from `CCc1cc2ccc(C(C#N)(CC)Cc3ccccc3)cc2[nH]c1=O` (stereo not shown) [Compound 32] to `CC(=O)c1cc2ccc(C(C)(C#N)Cc3ccccc3)cc2[nH]c1=O` (stereo not shown) [Compound 39], the IC50 rises from 2000 nM to greater than 10000 nM.

Compared with `COc1ccccc1-c1nc(CC(C)(C#N)c2ccc3cc(C)c(=O)[nH]c3c2)no1` (stereo not shown) [Compound 33], `Cc1cc2ccc(C(C)(C#N)Cc3cccc(Cl)c3)cc2[nH]c1=O` (stereo not shown) [Compound 37] is 2.5-fold lower in IC50: 794 nM for the first, 316 nM for the second.

Compared with `Cc1cc2ccc(C(C)(C#N)Cc3cccc(C#N)c3)cc2[nH]c1=O` (stereo not shown) [Compound 34], `Cc1cc2ccc([C@@](C)(C#N)Cc3cccc(C#N)c3)cc2[nH]c1=O` [Compound 35] is 40-fold higher in IC50: 200 nM for the first, 7940 nM for the second.

Going from `Cc1cc2ccc([C@](C)(C#N)Cc3cccc(C#N)c3)cc2[nH]c1=O` [Compound 36] to `CC(C)c1cc2ccc(C(C)(C#N)Cc3ccccc3)cc2[nH]c1=O` (stereo not shown) [Compound 38], the IC50 rises from 50.1 nM to greater than 10000 nM.
